Holding throughout (format): in vivo
In test [1] the test system is blackgrass (Alopecurus myosuroides). Nature of the test: Test A postemergence. The settings on record: Alopecurus myosuroides, post-emergence, 240 h; for pest or weed control at 125 g/ha: 125 g ai/ha; for pest or weed control at 500 g/ha: 500 g ai/ha; for pest or weed control at 31 g/ha: 31 g ai/ha, visual injury after approx. 10 d, 0 no effect, 100 complete control. The method, boiled down: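 Greenhouse, ~10 d after spray; visual injury vs untreated controls, 0 = no effect, 100 = complete control. Preemergence: directed soil spray over planted seeds. Postemergence: plants 2–10 cm, 1–2 leaf stage. Loam/sand blend. Compound in non-phytotoxic solvent with surfactant.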

Test [2] relates to barnyardgrass (Echinochloa crus-galli). Nature of the test: Test B flooded paddy test. The settings on record: Echinochloa crus-galli, 250 g ai/ha, Flood. Put shortly: (§1)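 2-leaf plants; pots flooded 3 cm over soil; cpd added to paddy water; depth held; greenhouse 13–15 d; visual rating vs controls, 0 = no effect, 100 = complete control.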
Test [3] deals with ducksalad (Heteranthera limosa). The test can be described thus: Test B flooded paddy test. The settings on record: Heteranthera limosa, 250 g ai/ha, Flood. The method, boiled down: as §1
The test system of test [4] is rice (Oryra sativa). Nature of the test: Test B flooded paddy test. The conditions noted are these: Oryza sativa, 250 g ai/ha, Flood. The method, boiled down: as §1
The subject of test [5] is sedge, umbrella (small-flower umbrella sedge, Cyperus difformis). Nature of the test: Test B flooded paddy test. The conditions noted are these: Cyperus difformis, 250 g ai/ha, Flood. Put shortly: as §1
Where [6] appears, read: postemergence, visual injury vs untreated controls after approx. 10 d, 0 = no effect, 100 = complete control, read-out: Blackgrass plant response rating (0 to 100 scale).
The mark [7] stands for this setting: Postemergence, visual injury, 0 to 100 scale (0 no effect, 100 complete control), approx. 10 d, read-out: Plant response rating, Blackgrass.
Setting [8] is: 0 to 100 scale where 0 is no effect and 100 is complete control, read-out: Barnyardgrass plant response rating.
[9] abbreviates: 0 to 100 scale where 0 is no effect and 100 is complete control, read-out: Ducksalad plant response rating.
The mark [10] stands for this setting: 0 to 100 scale where 0 is no effect and 100 is complete control, read-out: Rice plant response rating.
The mark [11] stands for this setting: 0 to 100 scale where 0 is no effect and 100 is complete control, read-out: Sedge, Umbrella plant response rating.
[12] abbreviates: postemergence, 0 to 100 scale, 0 is no effect, 100 is complete control, read-out: Blackgrass plant response rating.
The mark [13] stands for this setting: postemergence, visual injury rating after approximately 10 d, read-out: Blackgrass plant response rating (0 to 100 scale, 0 no effect, 100 complete control).
[14] abbreviates: Postemergence, 0 to 100 scale, read-out: Plant response rating, Blackgrass.
[15] abbreviates: scale of 0 to 100 where 0 is no effect and 100 is complete control, read-out: Barnyardgrass plant response rating.
Setting [16] is: scale of 0 to 100 where 0 is no effect and 100 is complete control, read-out: Ducksalad plant response rating.
The mark [17] stands for this setting: scale of 0 to 100 where 0 is no effect and 100 is complete control, read-out: Rice plant response rating.
Setting [18] is: scale of 0 to 100 where 0 is no effect and 100 is complete control, read-out: Sedge, Umbrella plant response rating.
[19] abbreviates: postemergence, visual injury after approximately 10 d, 0 to 100 scale (0 no effect, 100 complete control), read-out: Plant response rating, Blackgrass.

Read-outs that look alike come from different tables or passages of the source.

Regarding `Cc1c(F)cccc1NC(=O)[C@H]1C(=O)N(C)C[C@@H]1c1ccc2c(c1)OC(F)(F)O2` [Compound 1252], in test [1] (setting [6]), the pest or weed control at 125 g/ha came out at 50%. For the same molecule, in test [1] (setting [7]), the pest or weed control at 500 g/ha is 50%. In addition, the pest or weed control at 250 g/ha in test [2] (setting [8]) is 65%; in test [3] (setting [9]), 100%; in test [4] (setting [10]), 30%; in test [5] (setting [11]), 0%.

On to `Cc1c(F)cccc1NC(=O)[C@H]1C(=O)N(C)C[C@@H]1c1ccc(F)c(Br)c1` [Compound 1211], for which, in test [1] (setting [6]), the pest or weed control at 125 g/ha is 30%. Besides, in test [1] (setting [12]), the pest or weed control at 500 g/ha was determined as 40%. The pest or weed control at 250 g/ha in test [2] (setting [8]) was determined as 85%; in test [3] (setting [9]) it was 100%; in test [4] (setting [10]), 60%; in test [5] (setting [11]), 0%.

Regarding `CN1CC[C@H](c2cccc(OC(F)(F)F)c2)[C@@H](C(=O)Nc2cccc(F)c2F)C1=O` [Compound 807], in test [1] (setting [13]), the pest or weed control at 125 g/ha came to 0%. Also, in test [1] (setting [14]), the pest or weed control at 31 g/ha was determined as 0%. The pest or weed control at 250 g/ha worked out at 95% in test [2] (setting [15]), 100% in test [3] (setting [16]), 0% in test [4] (setting [17]) and 0% in test [5] (setting [18]).

For the molecule `CN1C[C@H](c2ccc(OC(F)F)cc2)[C@@H](C(=O)Nc2ccccc2F)C1=O` [Compound 1371], the pest or weed control at 125 g/ha in test [1] (Postemergence, visual rating about 10 d after treatment, read-out: Blackgrass plant response rating (0 to 100 scale)) came to 40%. Further, the pest or weed control at 500 g/ha in test [1] (setting [7]) is 60%. Further, the pest or weed control at 250 g/ha was 60% in test [2] (360 h, visually evaluated after 13 to 15 d, read-out: Plant response rating, Barnyardgrass (0 to 100 scale where 0 is no effect and 100 is complete control)); 100% in test [3] (360 h, visually evaluated after 13 to 15 d, read-out: Plant response rating, Ducksalad (0 to 100 scale where 0 is no effect and 100 is complete control)); 0% in test [4] (360 h, visually evaluated after 13 to 15 d, read-out: Plant response rating, Rice (0 to 100 scale where 0 is no effect and 100 is complete control)); 0% in test [5] (360 h, visually evaluated after 13 to 15 d, read-out: Plant response rating, Sedge, Umbrella (0 to 100 scale where 0 is no effect and 100 is complete control)).

Turning to `CSc1ccccc1NC(=O)[C@H]1C(=O)NC[C@@H]1c1ccc(F)c(C#N)c1` [Compound 1201], the pest or weed control at 125 g/ha in test [1] (setting [6]) was determined as 0%. Moreover, the pest or weed control at 500 g/ha in test [1] (setting [12]) stood at 0%. Moreover, the pest or weed control at 250 g/ha in test [2] (setting [8]) was determined as 0%; in test [3] (setting [9]), 50%; in test [4] (setting [10]), 0%; in test [5] (setting [11]) it was 0%.

Take `Cc1cc([C@H]2CNC(=O)[C@@H]2C(=O)Nc2ccccc2F)ccc1Cl` [Compound 789]: the pest or weed control at 125 g/ha in test [1] (setting [19]) turned out to be 40%. Also, the pest or weed control at 250 g/ha in test [2] (setting [15]) turned out to be 20%; in test [3] (setting [16]), 100%; in test [4] (setting [17]) it was 0%; in test [5] (setting [18]) it was 0%.

For `C=CCN1C[C@H](c2ccc(OC)c(F)c2)[C@@H](C(=O)Nc2cccc(F)c2F)C1=O` [Compound 722], in test [1] (setting [19]), the pest or weed control at 125 g/ha is 0%. Moreover, the pest or weed control at 250 g/ha in test [2] (setting [15]), in test [3] (setting [16]), in test [4] (setting [17]) and in test [5] (setting [18]) was 0% each time.

On to `CN1CC[C@H](c2cccc(OC(F)(F)F)c2)[C@@H](C(=O)Nc2cccc(Cl)c2F)C1=O` [Compound 810], for which the pest or weed control at 125 g/ha in test [1] (setting [13]) was 0%. Further, in test [1] (setting [14]), the pest or weed control at 31 g/ha amounted to 0%. In addition, the pest or weed control at 250 g/ha was found to be 60% in test [2] (setting [15]), 90% in test [3] (setting [16]), 0% in test [4] (setting [17]) and 0% in test [5] (setting [18]).

With `Cc1cc([C@H]2CNC(=O)[C@@H]2C(=O)Nc2ccc(F)cc2F)ccc1F` [Compound 718], the pest or weed control at 125 g/ha in test [1] (setting [19]) worked out at 20%. Also, the pest or weed control at 250 g/ha in test [2] (setting [15]) came out at 40%; in test [3] (setting [16]) it was 100%; in test [4] (setting [17]), 0%; in test [5] (setting [18]) it was 0%.

`CN1C[C@H](c2ccc(C(F)F)cc2)[C@@H](C(=O)Nc2ccccc2F)C1=O` [Compound 803]: the pest or weed control at 125 g/ha in test [1] (setting [13]) was found to be 50%. For the same molecule, in test [1] (setting [14]), the pest or weed control at 31 g/ha was 20%. Besides, the pest or weed control at 250 g/ha came to 90% in test [2] (setting [15]), 100% in test [3] (setting [16]), 55% in test [4] (setting [17]) and 0% in test [5] (setting [18]).
